PMC7582876, “Antiproliferative Properties of a Few Auranofin-Related Gold(I) and Silver(I) Complexes in Leukemia Cells and their Interferences with the Ubiquitin Proteasome System” (Molecules, 2020)

Experiments:
Type in all cases: biochemical
[1] = target: T1, bovine pancreatic α-chymotrypsin (Bos taurus, UniProt P00766); assay: Bovine pancreatic α-chymotrypsin inhibition screening; settings: over 10 min
T1 construct: from tissue; host or cells: bovine pancreas (from the enzyme's name only)
Protocol: 20S proteasome, isolated and purified from human erythrocytes, was obtained from a commercial source (Biomol GmbH, Hamburg, Germany), as well as the peptidic substrates (Bachem, Bubendorf, Switzerland) Suc-Leu-Leu-Val-Tyr-AMC, Boc-Leu-Arg-Arg-AMC and Cbz-Leu-Leu-Glu-AMC for ChT-L, T-L and PGPH (C-L) activity of the enzyme, respectively. The three distinct proteolytic activities of the 20S proteasome were measured by monitoring the hydrolysis of the substrates and detecting the fluorescence of the common product released, i.e., 7-amino-4-methyl coumarin (7-AMC), by means of an Infinite 200 PRO microplate reader (Tecan, Männedorf, Switzerland) at 30 °C with a 380-nm excitation filter and a 460-nm emission filter. All gold and silver complexes were tested against the three proteolytic activities of the 20S proteasome and against Cat-B, Cat-L and bovine pancreatic α-chymotrypsin at 10 µM concentrations over a period of 10 min using an equivalent amount of DMSO as a negative control. […]. The IC50 values were calculated with the program GraFit® using the two-parameter equation. More detailed experimental protocols for the assays against each proteolytic activity of the 20S proteasome, as well as against bovine pancreatic α-chymotrypsin, are already reported elsewhere (see also Supplementary Materials). Cat-B and Cat-L were purchased from Calbiochem, Darmstadt, Germany, and the related assays were performed as previously described. The employed fluorogenic substrate for both cysteine proteases was Cbz-Phe-Arg-AMC (80 µM for Cat-B; 5 µM for Cat-L).
Assay for Bovine Pancreatic α-Chymotrypsin Inhibition
The enzyme ([…]) was incubated at 20 °C with the test compound present at 10
µM (screening assay). The reaction buffer consisted of 50 mM Tris buffer pH 8.0
containing 100 mM NaCl, 5 mM EDTA and 7.5% DMSO. Product release from substrate
hydrolysis ([…] final concentration, Suc-Leu-Leu-Val-Tyr-AMC from Bachem) was
determined over a period of 10 min. […]

[2] = target: T2, trypsin-like (T-L) activity of human 20S proteasome (Homo sapiens, UniProt Q99436); assay: Inhibition of trypsin-like activity of 20S proteasome (Boc-Leu-Arg-Arg-AMC); settings: for IC50: 10 min, no pre-incubation, 30 °C; for T-L inhibition at 10 µM: over 10 min
T2 construct: 20S proteasome, isolated and purified from human erythrocytes; purchased Biomol GmbH, Hamburg, Germany; host or cells: human erythrocytes (native complex)
Protocol: (§1) 20S proteasome, isolated and purified from human erythrocytes, was obtained from a commercial source (Biomol GmbH, Hamburg, Germany), as well as the peptidic substrates (Bachem, Bubendorf, Switzerland) Suc-Leu-Leu-Val-Tyr-AMC, Boc-Leu-Arg-Arg-AMC and Cbz-Leu-Leu-Glu-AMC for ChT-L, T-L and PGPH (C-L) activity of the enzyme, respectively. The three distinct proteolytic activities of the 20S proteasome were measured by monitoring the hydrolysis of the substrates and detecting the fluorescence of the common product released, i.e., 7-amino-4-methyl coumarin (7-AMC), by means of an Infinite 200 PRO microplate reader (Tecan, Männedorf, Switzerland) at 30 °C with a 380-nm excitation filter and a 460-nm emission filter. All gold and silver complexes were tested against the three proteolytic activities of the 20S proteasome and against Cat-B, Cat-L and bovine pancreatic α-chymotrypsin at 10 µM concentrations over a period of 10 min using an equivalent amount of DMSO as a negative control. […] The IC50 values were calculated with the program GraFit® using the two-parameter equation. More detailed experimental protocols for the assays against each proteolytic activity of the 20S proteasome, as well as against bovine pancreatic α-chymotrypsin, are already reported elsewhere (see also Supplementary Materials). Cat-B and Cat-L were purchased from Calbiochem, Darmstadt, Germany, and the related assays were performed as previously described. The employed fluorogenic substrate for both cysteine proteases was Cbz-Phe-Arg-AMC (80 µM for Cat-B; 5 µM for Cat-L). […]
Inhibition assay for the Tryptic Activity of the 20S Proteasome
mg∙mL−1 with the test compound present at 10 µM (screening assay) or at variable
concentrations (continuous assay). The reaction buffer consisted of 50 mM Tris buffer pH
substrate hydrolysis ([…]) was monitored continuously over a period of 10 min. […]

[3] = target: T3, human cathepsin-B (Cat-B) (Homo sapiens, UniProt P07858); assay: Cathepsin-B inhibition screening; settings: over 10 min
T3 construct: purchased Calbiochem, Darmstadt, Germany; host or cells: recombinant
Protocol: The IC50 values were calculated with the program GraFit® using the two-parameter equation. More detailed experimental protocols for the assays against each proteolytic activity of the 20S proteasome, as well as against bovine pancreatic α-chymotrypsin, are already reported elsewhere (see also Supplementary Materials). Cat-B and Cat-L were purchased from Calbiochem, Darmstadt, Germany, and the related assays were performed as previously described. […] Assay for Bovine Pancreatic α-Chymotrypsin Inhibition The enzyme ([…]) was incubated at 20 °C with the test compound present at 10 μM (screening assay). The reaction buffer consisted of 50 mM Tris buffer pH 8.0 containing 100 mM NaCl, 5 mM EDTA and 7.5% DMSO. Product release from substrate hydrolysis ([…] final concentration, Suc-[…] from Bachem) was determined over a period of 10 min. Assay for Cathepsin-B and Cathepsin-L Inhibition Assays were performed at 25 °C in a 20 mM Tris-HCl buffer, pH 6.0, containing 5 mM […] Substrate (Cbz-Phe-Arg-AMC for both enzymes) and inhibitor stock solutions were prepared in DMSO (10% final concentration) and were diluted with assay buffer; enzymes were held in buffer. The final substrate concentration for inhibition assays was between 10.0 and 81.0 […] for CB (recombinant, human liver). […] μM and 140 μM. Product release from substrate hydrolysis was determined over a period of 10 min.

[4] = target: T4, peptidyl-glutamyl peptide-hydrolyzing (PGPH or caspase-like C-L) activity of human 20S proteasome (Homo sapiens, UniProt P28072); assay: Inhibition of peptidyl-glutamyl peptide-hydrolyzing activity of 20S proteasome (Cbz-Leu-Leu-Glu-AMC); settings: for PGPH (C-L) inhibition at 10 µM: over 10 min; for IC50: 10 min, no pre-incubation, 30 °C
T4 construct: 20S proteasome, isolated and purified from human erythrocytes; purchased Biomol GmbH, Hamburg, Germany; host or cells: human erythrocytes (native complex)
Protocol: as §1
Inhibition assay for the Post-Glutamyl Peptide Hydrolyzing Activity of the 20S
with the test compound present at 10 µM (screening assay) or variable concentrations. The
reaction buffer consisted of 50 mM Tris buffer pH 7.5 containing 25 mM KCl, 10 mM NaCl,
1 mM MgCl2, 0.03% SDS, 5% DMSO. Product release from substrate hydrolysis ([…])
was monitored continuously over a period of 10 min.

Row | Compound | Bovine Pancreatic α-Chymotrypsin Inhibition (%) at 10 µM [1] | IC50 [2] | Cat-B Inhibition (%) at 10 µM [3] | PGPH (C-L) inhibition at 10 µM [4] | IC50 [4] | T-L inhibition at 10 µM [2]
1 | CC[PH](CC)(CC)[Ag][Br] [Ag(PEt3)Br] | n.i. | 2650 ± 150 nM | n.i. | n.i. |  | 
2 | CC[PH](CC)(CC)[Ag][Cl] [Ag(PEt3)Cl] | n.i. | 2200 ± 1300 nM | n.i. | n.i. |  | 
3 | CC[PH](CC)(CC)[Ag][I] [Ag(PEt3)I] | n.i. | 2270 ± 780 nM | n.i. | n.i. |  | 
4 | CCP(CC)CC.[Br][Au] [Au(PEt3)Br] | n.i. | 1260 ± 120 nM | 31 ± 2.2% |  | > 10000 nM | 
5 | CCP(CC)CC.[Au+].[Cl-] [Au(PEt3)Cl] | n.i. | 1250 ± 50 nM | 29 ± 0.2% |  | > 10000 nM | 
6 | CC[P](CC)(CC)[Au][I] [Au(PEt3)I] | n.i. | 5800 ± 300 nM | 29 ± 1.7% |  | > 10000 nM | 
7 | CCP(CC)CC.CCP(CC)CC.O=[N+]([O-])[O-].[Ag+] [[Ag(PEt3)2]NO3] | n.i. |  | n.i. | n.i. |  | n.i.
8 | CC(=O)OC[C@H]1O[C@@H]([S-])[C@H](OC(C)=O)[C@@H](OC(C)=O)[C@@H]1OC(C)=O.CCP(CC)CC.[Au+] [auranofin, Auranofin] | n.i. ^a |  | n.i. | n.i. |  | n.i.
